Structures are written as SMILES.

By DC50 is commonly meant the concentration at which degradation of the target reaches its halfway point.

In the assay the target is T1, ERα protein (HiBiT-tagged) in ESR1_HiBiT KI MCF7 cells (Homo sapiens, UniProt P03372).
T1 sequence (P03372 1-595): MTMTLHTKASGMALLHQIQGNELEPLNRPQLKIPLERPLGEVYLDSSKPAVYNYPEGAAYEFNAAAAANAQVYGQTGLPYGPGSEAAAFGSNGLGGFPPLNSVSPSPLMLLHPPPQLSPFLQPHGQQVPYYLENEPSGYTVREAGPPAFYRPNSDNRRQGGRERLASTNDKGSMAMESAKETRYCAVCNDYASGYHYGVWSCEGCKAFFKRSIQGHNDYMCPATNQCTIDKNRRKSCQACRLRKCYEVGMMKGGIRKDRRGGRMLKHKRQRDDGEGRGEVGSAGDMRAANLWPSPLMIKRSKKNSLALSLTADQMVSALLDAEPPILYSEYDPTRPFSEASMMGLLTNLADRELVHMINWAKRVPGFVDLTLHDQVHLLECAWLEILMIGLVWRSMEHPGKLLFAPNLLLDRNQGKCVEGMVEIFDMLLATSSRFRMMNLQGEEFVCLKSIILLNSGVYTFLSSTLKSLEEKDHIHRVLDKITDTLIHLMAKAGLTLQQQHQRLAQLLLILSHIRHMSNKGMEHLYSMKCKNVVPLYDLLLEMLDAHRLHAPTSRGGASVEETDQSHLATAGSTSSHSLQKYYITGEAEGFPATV
Briefly: Nano Glo HiBiT Lytic Degradation Assay. Particulars: 6 hours with compound, 14-point dose response 1:3, bell-shape curve fit, half-maximal effect of first Hill model, read-out: MCF7 ESR1 HiBiT - (DC50). It counts as cell-based. In outline:
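HiBiT-tagged endogenous ERα remaining in MCF7 knock-in cells was quantified by lytic luminescence after a 6 h treatment. DC50 values derive from a bell-shaped curve, taken at the first Hill component's half-maximal effect.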
A general note: HiBiT is a short tag that completes a luciferase, so light tracks the accessible tagged protein.
In the case of `O=C1CC[C@H](N2Cc3cc(N4CCN(CC5CCN(c6ccc([C@H]7c8ccc(O)cc8C(F)(F)C[C@H]7c7ccc(F)cc7F)cc6)CC5)CC4)ccc3C2=O)C(=O)N1` [Compound I-319, (S)-3-(5-(4-((1-(4-((1S,2R)-2-(2,4-difluorophenyl)-4,4-difluoro-6-hydroxy-1,2,3,4-tetrahydronaphthalen-1-yl)phenyl)piperidin-4-yl)methyl)piperazin-1-yl)-1-oxoisoindolin-2-yl)piperidine-2,6-dione], the DC50 stood at 108 nM.

`O=C1CC[C@H](N2Cc3cc(N4CCN(CC5CCN(c6ccc([C@H]7c8ccc(O)cc8CC[C@@]78CCCc7ccccc78)cc6)CC5)CC4)ccc3C2=O)C(=O)N1` (single isomer, unassigned) [Compound I-266]: the DC50 stood at 17 nM.

For `O=C1CCC(c2ccc(C3CC4(C3)CN(CC3CCN(c5ccc([C@@H]6c7ccc(O)cc7CC[C@@H]6c6ccccc6)cc5)CC3)C4)cc2)C(=O)N1` (stereo partly drawn) [Compound I-182, 3-(4-(2-((1-(4-((1R,2S)-6-hydroxy-2-phenyl-1,2,3,4-tetrahydronaphthalen-1-yl)phenyl)piperidin-4-yl)methyl)-2-azaspiro[3.3]heptan-6-yl)phenyl)piperidine-2,6-dione], the DC50 came to 2 nM.

Consider `O=C1CC[C@H](N2Cc3cc(N4CCN(CC5CCN(c6ccc([C@H]7c8ccc(O)cc8CO[C@H]7c7ccc(O)cc7)cc6)CC5)CC4)ccc3C2=O)C(=O)N1` (single isomer, unassigned) [Compound I-360], for which the DC50 came out at 0.38 nM.

In the case of `C[C@H]1CN(c2ccc3c(c2)CN([C@H]2CCC(=O)NC2=O)C3=O)CCN1CC1CCN(c2ccc([C@H]3c4ccc(O)cc4CC[C@H]3c3ccccc3)cc2)CC1` (single isomer, unassigned) [II-11], the DC50 is no less than 10000 nM.

In the case of `O=C1CC[C@H](N2Cc3cc(N4CCN(CC5CCN(c6ccc([C@H]7c8ccc(O)cc8CCC78CCCCC8)cc6)CC5)CC4)ccc3C2=O)C(=O)N1` [Compound I-142], the DC50 was no less than 10000 nM.

Consider `Cc1cc(F)cc([C@H]2OCc3cc(O)ccc3[C@H]2c2ccc(N3CCC(CN4CCN(c5ccc6c(c5)CN([C@H]5CCC(=O)NC5=O)C6=O)CC4)CC3)cc2)c1` [Compound I-377, (S)-3-(5-(4-((1-(4-((3S,4R)-3-(3-fluoro-5-methylphenyl)-7-hydroxyisochroman-4-yl)phenyl)piperidin-4-yl)methyl)piperazin-1-yl)-1-oxoisoindolin-2-yl)piperidine-2,6-dione], for which the DC50 amounted to 0.62 nM.

As for `O=C1CC[C@H](N2Cc3cc(N4CCN(CC5CCN(c6ccc([C@@H]7c8ccc(O)cc8CC[C@@H]7c7ccc8c(c7)CCC8)cc6)CC5)CC4)ccc3C2=O)C(=O)N1` (single isomer, unassigned) [Compound I-412], the DC50 was determined as 332 nM.

`C[C@@H]1O[C@@H](C2CCCCC2)[C@H](c2ccc(N3CCC(CN4CCN(c5ccc6c(c5)CN([C@H]5CCC(=O)NC5=O)C6=O)CC4)CC3)cc2)c2ccc(O)cc21` (single isomer, unassigned) [Compound I-254]: the DC50 was determined as 41 nM.

Consider `O=C1CC[C@H](N2Cc3cc(N4CCN(CC5CCN(c6ccc(C7c8ccc(O)cc8CCC7C7CCCCC7)cn6)CC5)CC4)ccc3C2=O)C(=O)N1` (stereo in doubt) [Compound I-154, (S)-3-(5-(4-((1-(5-((1S,2R)-2-cyclohexyl-6-hydroxy-1,2,3,4-tetrahydronaphthalen-1-yl)pyridin-2-yl)piperidin-4-yl)methyl)piperazin-1-yl)-1-oxoisoindolin-2-yl)piperidine-2,6-dione], for which the DC50 turned out to be 3300 nM.

Consider `O=C1CC[C@H](N2Cc3cc(N4CCN(CC5CCN(c6ccc([C@H]7c8ccc(O)cc8CO[C@H]7c7ccccc7)cc6F)CC5)CC4)ccc3C2=O)C(=O)N1` (single isomer, unassigned) [Compound I-382], for which the half-maximal degradation concentration (DC50) was 2 nM.

Take `Cn1nc(C2CCC(=O)NC2=O)c2ccc(N3CCN(CC4CCN(c5ccc([C@@H]6c7ccc(O)cc7CC[C@@H]6c6ccccc6)cc5)CC4)CC3)cc21` (stereo partly drawn) [Compound I-188, 3-(6-(4-((1-(4-((1R,2S)-6-hydroxy-2-phenyl-1,2,3,4-tetrahydronaphthalen-1-yl)phenyl)piperidin-4-yl)methyl)piperazin-1-yl)-1-methyl-1H-indazol-3-yl)piperidine-2,6-dione]: the DC50 was 1.23 nM.

`Cc1cccc([C@@H]2CCc3cc(O)ccc3[C@@H]2c2ccc(N3CCC(CN4CCN(c5ccc6c(c5)CN([C@H]5CCC(=O)NC5=O)C6=O)CC4)CC3)cc2)c1` (single isomer, unassigned) [II-29]: the DC50 came out at 1.24 nM.

In the case of `O=C1CC[C@H](N2Cc3cc(N4CCN(CC5CCN(c6ccc([C@H]7c8ccc(O)cc8C(F)(F)C[C@H]7C7CCCCC7)cc6)CC5)CC4)ccc3C2=O)C(=O)N1` [Compound I-98, (S)-3-(5-(4-((1-(4-((1S,2S)-2-cyclohexyl-4,4-difluoro-6-hydroxy-1,2,3,4-tetrahydronaphthalen-1-yl)phenyl)piperidin-4-yl)methyl)piperazin-1-yl)-1-oxoisoindolin-2-yl)piperidine-2,6-dione], the DC50 is no less than 10000 nM.

As to `O=C1CCC(N2Cc3cc(N4CCN(CC5CCN(c6ccc([C@@H]7c8ccc(O)cc8CC[C@@H]7C7CCCC7)cc6)CC5)CC4)ccc3C2=O)C(=O)N1` (single isomer, unassigned) [Compound I-52], the DC50 was 9 nM.

`O=C1CCC(c2ccc(N3CCC4(CCN(CC5CCN(c6ccc([C@@H]7c8ccc(O)cc8C(F)(F)C[C@@H]7c7ccccc7)cc6)CC5)C4)C3)cc2)C(=O)N1` (single isomer, unassigned) [Compound I-282, 3-(4-((R*)-7-((1-(4-((1R,2S)-4,4-difluoro-6-hydroxy-2-phenyl-1,2,3,4-tetrahydronaphthalen-1-yl)phenyl)piperidin-4-yl)methyl)-2,7-diazaspiro[4.4]nonan-2-yl)phenyl)piperidine-2,6-dione]: the DC50 turned out to be 24.5 nM.

Regarding `O=C1CC[C@H](N2Cc3cc(N4CCN(CCC5CCN(c6ccc([C@H]7c8ccc(O)cc8CC[C@H]7c7ccccc7)cc6)CC5)CC4)ccc3C2=O)C(=O)N1` [II-98], the DC50 was no less than 10000 nM.

For the compound `O=C1CC[C@H](N2Cc3cc(N4CCN(CC5CCN(c6ccc([C@@H]7c8ccc(O)cc8CO[C@@H]7c7ccccc7F)cc6)CC5)CC4)ccc3C2=O)C(=O)N1` [Compound I-347, (S)-3-(5-(4-((1-(4-((3S,4R)-3-(2-fluorophenyl)-7-hydroxyisochroman-4-yl)phenyl)piperidin-4-yl)methyl)piperazin-1-yl)-1-oxoisoindolin-2-yl)piperidine-2,6-dione], the DC50 is 0.18 nM.

As to `O=C1CC[C@H](N2Cc3cc(N4CCN(CC5CCN(c6ccc([C@H]7c8ccc(O)cc8CC[C@H]7c7ccc8c(c7)CC8)cc6)CC5)CC4)ccc3C2=O)C(=O)N1` (single isomer, unassigned) [Compound I-58], the DC50 worked out at 0.048 nM.

`O=C1CCC(N2Cc3cc(N4CCN(CC5CCN(c6ccc([C@@H]7c8ccc(O)cc8CC[C@@H]7C7CCC(F)(F)CC7)cc6)CC5)CC4)ccc3C2=O)C(=O)N1` (single isomer, unassigned) [Compound I-54]: the DC50 stood at 742 nM.

As for `O=C1CC[C@H](N2Cc3cc(N4CCN(C[C@@H]5CCN(c6ccc([C@H]7c8ccc(O)cc8CC[C@H]7c7ccccc7)cc6)C5)CC4)ccc3C2=O)C(=O)N1` (single isomer, unassigned) [II-33], the DC50 stood at 2 nM.

Source of the values: patent US20250388565A1, “ESTROGEN RECEPTOR ALPHA DEGRADERS AND METHODS OF USE THEREOF” (Relay Therapeutics, Inc., priority 2022, published 2025).
